{
  "source": "patent US11433115B2",
  "about": "“Glycopeptide antibiotics liquid formulations and methods and uses thereof” (SOMERSET THERAPEUTICS, LLC, priority 2020, dated 2022)",
  "origin": "cited, not measured here",
  "key": {"[1]": {"test_system": "rats", "conditions": "rat, in vivo"}, "[2]": {"test_system": "acylases", "conditions": "via the action of acylases"}, "[3]": {"conditions": "orally-dosed pigs, ˜382 mg/kg"}},
  "note": "Like-named read-outs stand apart in the source and are kept apart here.",
  "data": [
    {"compound": "CSCC[C@H](NC(C)=O)C(=O)O", "note": "[NALM, N-acetyl-L-methionine]", "values": [
      {"measurement": "LD50", "setting": "[1]; iv", "value": 435, "unit": "mg/kg"},
      {"measurement": "hydrolysis to L-methionine and acetic acid", "setting": "[2]", "value": "completely hydrolyzed"}
    ]},
    {"compound": "CC(=O)N[C@H](C)C(=O)O", "note": "[NADA, N-acetyl D-alanine]", "values": [
      {"measurement": "embryo-fetal toxicity", "setting": "animal reproduction studies", "value": "caused fetal malformations"}
    ]},
    {"compound": "CSCCC(NC(C)=O)C(=O)O", "note": "(racemic) [N-acetyl-DL-methionine]", "values": [
      {"measurement": "LD50", "setting": "[1]; ip", "value": 6700, "unit": "mg/kg"}
    ]},
    {"compound": "CSCC[C@@H](NC(C)=O)C(=O)O", "note": "[NADM, N-acetyl-D-methionine]", "values": [
      {"measurement": "hydrolysis to D- and L-methionine", "setting": "[3]", "value": "only minimally hydrolyzed"},
      {"measurement": "time to peak plasma concentration after dosing", "setting": "[3]", "value": 15, "unit": "min"}
    ]},
    {"compound": "polyethylene glycol [PEG 400]", "values": [
      {"measurement": "embryo-fetal toxicity", "setting": "in vivo", "value": "caused fetal malformations"}
    ]}
  ]
}
